Experimental data from the supplement of paper PMC10307832.

Assays:
Experiment in all cases: relative viability (nuclei count vs DMSO), 5 days (fraction); higher = more cells survive
BAY61-3606 + Trametinib = compound: COC1=C(C=C(C=C1)C2=CC3=NC=CN3C(=N2)NC4=C(C=CC=N4)C(=O)N)OC [BAY61-3606] + CC(=O)Nc1cccc(-n2c(=O)n(C3CC3)c(=O)c3c(Nc4ccc(I)cc4F)n(C)c(=O)c(C)c32)c1 [Trametinib] (partner 0.02 µM)
Procedure, shortened: (§1)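 Dosing by pin tool came one day after lung cancer cell lines were seeded in 1536-well plates, using either one drug or a fixed anchor-drug dose plus five library-drug doses (not always all listed) in √10 steps. After 5 days, nuclei were counted on 4× images. Relative viability is treated-well nuclei count divided by vehicle-well nuclei count, and values are medians of duplicate plates.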

BAY61-3606 + Alpelisib = compound: COC1=C(C=C(C=C1)C2=CC3=NC=CN3C(=N2)NC4=C(C=CC=N4)C(=O)N)OC [BAY61-3606] + Cc1nc(NC(=O)N2CCC[C@H]2C(N)=O)sc1-c1ccnc(C(C)(C)C(F)(F)F)c1 [Alpelisib] (partner 2 µM)
Procedure, shortened: as §1

BAY61-3606 + Phenformin = compound: COC1=C(C=C(C=C1)C2=CC3=NC=CN3C(=N2)NC4=C(C=CC=N4)C(=O)N)OC [BAY61-3606] + N=C(N)NC(=N)NCCc1ccccc1 [Phenformin] (partner 250 µM)
Procedure, shortened: as §1

Doxorubicin + Vorinostat = compound: COc1cccc2c1C(=O)c1c(O)c3c(c(O)c1C2=O)C[C@@](O)(C(=O)CO)C[C@@H]3O[C@H]1C[C@H](N)[C@H](O)[C@H](C)O1 [Doxorubicin] + O=C(CCCCCCC(=O)Nc1ccccc1)NO [Vorinostat] (partner 1 µM)
Procedure, shortened: as §1

| Cell Line | relative viability (BAY61-3606 + Trametinib; first compound 0.02 µM) | relative viability (BAY61-3606 + Trametinib; first compound 0.06325 µM) | relative viability (BAY61-3606 + Trametinib; first compound 0.2 µM) | relative viability (BAY61-3606 + Trametinib; first compound 0.6325 µM) | relative viability (BAY61-3606 + Trametinib; first compound 2 µM) | relative viability (BAY61-3606 + Alpelisib; first compound 0.02 µM) | relative viability (BAY61-3606 + Alpelisib; first compound 0.06325 µM) | relative viability (BAY61-3606 + Alpelisib; first compound 0.2 µM) | relative viability (BAY61-3606 + Alpelisib; first compound 0.6325 µM) | relative viability (BAY61-3606 + Alpelisib; first compound 2 µM) | relative viability (BAY61-3606 + Phenformin; first compound 0.02 µM) | relative viability (BAY61-3606 + Phenformin; first compound 0.06325 µM) | relative viability (BAY61-3606 + Phenformin; first compound 0.2 µM) | relative viability (BAY61-3606 + Phenformin; first compound 0.6325 µM) | relative viability (BAY61-3606 + Phenformin; first compound 2 µM) | relative viability (Doxorubicin + Vorinostat; first compound 0.001 µM) | relative viability (Doxorubicin + Vorinostat; first compound 0.003162 µM) | relative viability (Doxorubicin + Vorinostat; first compound 0.01 µM) | relative viability (Doxorubicin + Vorinostat; first compound 0.03162 µM) | relative viability (Doxorubicin + Vorinostat; first compound 0.1 µM) |
| --- | --- | --- | --- | --- | --- | --- | --- | --- | --- | --- | --- | --- | --- | --- | --- | --- | --- | --- | --- | --- |
| HCC-15 | 0.425 | 0.375 | 0.385 | 0.382 | 0.423 | 0.836 | 0.94 | 0.929 | 0.862 | 0.768 | 0.474 | 0.457 | 0.458 | 0.474 | 0.454 | 0.888 | 0.847 | 0.818 | 0.736 | 0.747 |
| HCC-44 | 1.04 | 1.09 | 1 | 1.07 | 1.2 | 0.866 | 0.909 | 0.806 | 0.997 | 0.833 | 0.189 | 0.134 | 0.141 | 0.251 | 0.182 | 1.1 | 1.15 | 1.1 | 1.12 | 1.12 |
| HCC-78 | 0.763 | 0.745 | 0.738 | 0.836 | 0.859 | 0.405 | 0.366 | 0.453 | 0.362 | 0.358 | 0.769 | 0.719 | 0.688 | 0.848 | 0.915 | 0.445 | 0.481 | 0.407 | 0.51 | 0.414 |
| HCC-366 | 0.345 | 0.319 | 0.327 | 0.268 | 0.21 | 0.449 | 0.343 | 0.369 | 0.388 | 0.212 | 0.642 | 0.512 | 0.613 | 0.565 | 0.504 | 0.279 | 0.403 | 0.306 | 0.211 | 0.122 |
| HCC-827 | 0.511 | 0.585 | 0.539 | 0.583 | 0.608 | 0.94 | 1.01 | 0.995 | 0.954 | 0.916 | 0.392 | 0.435 | 0.389 | 0.358 | 0.347 | 0.559 | 0.854 | 0.856 | 0.774 | 0.641 |
| HOP-62 | – | 0.416 | 0.414 | 0.456 | 0.336 | 0.901 | – | 0.874 | 0.947 | 0.64 | 0.629 | 0.645 | 0.635 | 0.667 | 0.534 | 0.515 | 0.605 | 0.599 | 0.538 | 0.572 |
| IA-LM | – | – | – | – | – | 0.805 | – | 0.98 | 0.748 | 0.661 | – | – | – | – | – | 0.837 | 1.21 | 0.937 | 0.946 | 0.975 |
| LC-2-ad | 0.911 | 0.961 | 0.979 | 0.942 | 0.902 | 0.851 | 0.96 | 0.875 | 0.82 | 0.671 | 0.613 | 0.539 | 0.592 | 0.6 | 0.563 | 0.699 | 0.714 | 0.624 | 0.637 | 0.664 |
| NCI-H522 | 0.607 | 0.723 | 0.818 | 0.764 | 0.688 | – | – | – | – | – | 0.634 | 0.624 | 0.674 | 0.749 | 0.557 | 0.869 | 0.93 | 0.716 | 0.786 | 0.878 |
| NCI-H1299 | – | – | – | – | – | 1.05 | 1.08 | 1.07 | 1 | 1.03 | – | – | – | – | – | – | – | – | – | – |
| NCI-H1563 | – | – | – | – | – | 1.02 | 0.905 | 0.894 | 0.894 | 0.683 | 0.631 | 0.59 | 0.604 | 0.62 | 0.61 | – | – | – | – | – |
| NCI-H1623 | – | – | – | – | – | – | – | – | – | – | 0.58 | 0.522 | 0.588 | 0.58 | 0.588 | – | – | – | – | – |
| NCI-H1648 | 0.47 | 0.466 | 0.546 | – | 0.512 | – | – | – | – | – | – | – | – | – | – | 0.421 | 0.376 | 0.468 | 0.285 | 0.467 |
| NCI-H1650 | 0.661 | 0.514 | 0.595 | 0.569 | 0.29 | – | – | – | – | – | 0.506 | 0.351 | 0.48 | 0.378 | 0.224 | 0.52 | 0.625 | 0.417 | 0.181 | 0.16 |
| NCI-H1703 | – | – | – | – | – | 0.377 | 0.385 | 0.317 | 0.305 | 0.218 | – | – | – | – | – | – | – | – | – | – |
| NCI-H1792 | 0.574 | 0.361 | 0.353 | 0.412 | 0.396 | 0.743 | 0.673 | 0.74 | 0.751 | 0.674 | 0.37 | – | 0.336 | 0.544 | 0.333 | – | – | – | – | – |
| NCI-H2342 | 0.899 | 0.912 | 0.855 | 0.712 | 0.953 | – | – | – | – | – | 0.629 | 0.65 | 0.535 | 0.586 | 0.662 | 0.757 | 0.845 | 0.692 | 0.535 | 0.696 |
| SW 900 | 0.877 | – | – | 0.87 | 0.585 | – | – | – | – | – | 0.736 | 0.456 | 0.489 | 0.594 | 0.473 | – | 0.452 | 0.394 | 0.346 | 0.26 |
